Earlier results on two compounds are cited in US20130309199A1, “Novel Treatment of Multiple Sclerosis (MS)” (priority 2010, published 2013).

The subject of one data set is detrusor instability. As to conditions: cited from earlier work.
Data set [1] relates to active multiple sclerosis lesions. The following applies: gadolinium-enhanced MR images; cited from earlier work.

SMILES strings stand for the structures.

Regarding `CC(C(=O)O)c1ccc(-c2ccccc2)c(F)c1` (racemic) [Flurbiprofen], the side effects occurred in the data set on detrusor instability (compared with five on placebo, P less than 0.025) is on record as 13 patients. The tolerability result in the data set with detrusor instability (in vivo) is on record as “well tolerated by most patients”. In addition, the frequency result in the data set with detrusor instability (vs placebo, P less than 0.001) was “significantly reduced”. The “detrusor-pressure rise during bladder filling” value in the data set with detrusor instability (vs placebo, P less than 0.01) was “significantly reduced”. Besides, in the data set with detrusor instability (vs placebo, P less than 0.025), the urge incontinence entry is given as “significantly reduced” and the urgency result is on record as “significantly reduced”.
On to `CC(C)Cc1ccc(C(C)C(=O)O)cc1` (stereo not shown) [Ibuprofen], for which, in data set [1], the “suppression of active multiple sclerosis lesions” value was “does not suppress”.
